# Data reported in paper PMC7226469, “Polyketide-Derived Secondary Metabolites from a Dothideomycetes Fungus, Pseudopalawania siamensis gen. et sp. nov., (Muyocopronales) with Antimicrobial and Cytotoxic Activities” (Biomolecules, 2020).
# pIC50: −log10 of the molar value. Where a name gives a salt, the structure may show the parent alone. Read-outs that look alike come from different tables or passages of the source.
# Assays:
# HeLa cells KB3.1 = test: In vitro cytotoxicity, MTT assay; type: cell-based; conditions: Homo sapiens
# Procedure: (§1) Gentamicin, kanamycin, nystatin, and oxytetracycline were used as positive controls against tested organisms. […] Epothilone B and methanol were used as positive and negative control, respectively.
# (§2) The polyketides 1–5 were evaluated for their antimicrobial activity against selected microorganisms (Table 3) and cytotoxicity against two mammalian cell lines, HeLa cells KB3.1 and mouse fibroblast cell line L929 (Table 4). The starting concentration for antimicrobial assay and cytotoxicity assay were 66.7 and 300 µg/mL, respectively and the substances were dissolved in MeOH (1 mg/mL). […] Results were expressed as MIC or minimum inhibitory concentration (μg/mL) and IC50 or half maximal inhibitory concentration (μM) (Table 3 and Table 4).
# Mouse fibroblast L929 = test: In vitro cytotoxicity, MTT assay; type: cell-based
# Procedure: as §1, §2
# [1] = design: method as in PMID 30258223; conditions: cited from earlier work
# Escherichia coli = test: MIC, 96-well serial dilution; type: cell-based; conditions: strain DSM 1116, starting concentration 66.7 µg/mL, control volume in brackets; also: key: (-): no inhibition
# Procedure: as §1, §2
# Staphylococcus aureus = test: MIC, 96-well serial dilution; type: cell-based; conditions: for MIC: Staphylococcus aureus
# Procedure: as §1, §2
# [2] = test system: Chromobacterium violaceum; test: MIC, 96-well serial dilution; type: cell-based; conditions: strain DSM 30191, starting concentration 66.7 µg/mL, control volume in brackets; also: key: (-): no inhibition
# Procedure: as §1, §2
# Mucor hiemalis = test: MIC, 96-well serial dilution; type: cell-based; as to Minimum Inhibitory Concentration (MIC): key: (-): no inhibition
# Procedure: as §1, §2
# Micrococcus luteus = test: MIC, 96-well serial dilution; type: cell-based; conditions: for MIC: Micrococcus luteus
# Procedure: as §1, §2
# Candida albicans = test: MIC, 96-well serial dilution; type: cell-based
# Procedure: as §1, §2
# Bacillus subtilis = test: MIC, 96-well serial dilution; type: cell-based; conditions: for MIC: Bacillus subtilis
# Procedure: as §1, §2
# Pseudomonas aeruginosa = test: MIC, 96-well serial dilution; type: cell-based; conditions: strain PA14; starting concentration 66.7 µg/mL; control volume in brackets; also: key: (-): no inhibition
# Procedure: as §1, §2
# Mycobacterium smegmatis = test: MIC, 96-well serial dilution; type: cell-based
# Procedure: as §1, §2
# [3] = test system: various fungal and bacterial strains; test: Antimicrobial activity against selected microorganisms (summary statements); type: cell-based; conditions: for Antimicrobial activity (in words): fungi and bacteria of Table 3
# Procedure: as §1, §2
# [4] = test system: several cancer cell lines; design: method as in PMID 30258223; conditions: cell proliferation inhibition and apoptosis induction; cited from earlier work
# [5] = test system: Pseudoalteromonas nigrifaciens; design: method as in PMID 30258223; conditions: cited from earlier work
# B. subtilis = test system: B. subtilis; design: method as in PMID 30258223; conditions: cited from earlier work
# [6] = test system: MDA-MB-435 human melanoma cells; design: method as in PMID 23232928; conditions: cited from earlier work
# E. coli = test system: E. coli; design: method as in PMID 30258223; conditions: cited from earlier work
# CXCR4-tropic HIV-1 = test system: CXCR4-tropic HIV-1; design: method as in PMID 29258357; conditions: inhibition of infection; cited from earlier work
# [7] = test system: SW620 human colorectal adenocarcinoma cell lines; design: method as in PMID 23232928; conditions: cited from earlier work
# M. luteus = test system: M. luteus; design: method as in PMID 30258223; conditions: cited from earlier work
# CCR5-tropic HIV-1 = test system: CCR5-tropic HIV-1; design: method as in PMID 29258357; conditions: inhibition of infection; cited from earlier work
# [8] = test system: HeLa cells KB3.1 and mouse fibroblast cell line L929; test: Cytotoxicity against two mammalian cell lines (summary statements); conditions: HeLa KB3.1 and L929
# Procedure: as §1, §2
# [9] = test system: Schizosaccharomyces pombe; test: MIC, 96-well serial dilution; type: cell-based; conditions: strain DSM 70572; starting concentration 66.7 µg/mL; control volume in brackets
# Procedure: as §1, §2
# Cryptococcus neoformans = test: MIC, 96-well serial dilution; type: cell-based; conditions: strain DSM 15466; starting concentration 66.7 µg/mL; control volume in brackets
# Procedure: as §1, §2
# Rhodoturula glutinis = test: MIC, 96-well serial dilution; type: cell-based; conditions: strain DSM 10134; starting concentration 66.7 µg/mL; control volume in brackets
# Procedure: as §1, §2
# Pichia anomala = test: MIC, 96-well serial dilution; type: cell-based; conditions: strain DSM 6766; starting concentration 66.7 µg/mL; control volume in brackets
# Procedure: as §1, §2
# [10] = MTT assay, HeLa cells KB3.1, starting concentration 66 μg/mL, read-out: IC50
# [11] = MTT assay, mouse fibroblast L929, starting concentration 66 μg/mL, read-out: IC50
# [12] = strain DSM 6766, starting concentration 66.7 µg/mL, control volume in brackets
# [13] = DSM346, strain DSM 346, starting concentration 66.7 µg/mL, control volume in brackets, read-out: Minimum Inhibitory Concentration (MIC)
# [14] = DSM1790, strain DSM 1790, starting concentration 66.7 µg/mL, control volume in brackets, read-out: Minimum Inhibitory Concentration (MIC)
# [15] = DSM10, strain DSM 10, starting concentration 66.7 µg/mL, control volume in brackets, read-out: Minimum Inhibitory Concentration (MIC)
# [16] = strain DSM 346, starting concentration 66.7 µg/mL, control volume in brackets
# [17] = strain DSM 1790, starting concentration 66.7 µg/mL, control volume in brackets
# [18] = strain DSM 10, starting concentration 66.7 µg/mL, control volume in brackets
smiles,measurement,setting,value
"C[C@H]1CC(O)=C2C(=O)c3c(O)ccc(-c4ccc(O)c5c4O[C@]4(C(=O)O)C(=C(O)C[C@H](C)[C@H]4O)C5=O)c3O[C@@]2(C(=O)O)[C@@H]1O [Compound 2, 4,4′-secalonic acid D]",pIC50,HeLa cells KB3.1; [10],5.41
same,pIC50,Mouse fibroblast L929; [11],4.85
same,Toxicity (in words),[1],low toxicity
same,Minimum Inhibitory Concentration (MIC),Escherichia coli,-
same,MIC,"Staphylococcus aureus; DSM346, read-out: Minimum Inhibitory Concentration (MIC)",4.2 µg/mL
same,Minimum Inhibitory Concentration (MIC),[2],-
same,Minimum Inhibitory Concentration (MIC),Mucor hiemalis; [12],-
same,MIC,"Micrococcus luteus; DSM1790, read-out: Minimum Inhibitory Concentration (MIC)",8.3 µg/mL
same,MIC,"Candida albicans; Candida albicans, DSM1665, read-out: Minimum Inhibitory Concentration (MIC)",66.7 µg/mL
same,Inhibition of Candida albicans (in words),Candida albicans; comparable to nystatin,showed inhibition
same,MIC,"Bacillus subtilis; DSM10, read-out: Minimum Inhibitory Concentration (MIC)",1 µg/mL
same,Minimum Inhibitory Concentration (MIC),Pseudomonas aeruginosa,-
same,Activity against Mycobacterium smegmatis (in words),Mycobacterium smegmatis,showed activity
same,MIC,"Mycobacterium smegmatis; Mycolicibacterium smegmatis, ATCC700084, read-out: Minimum Inhibitory Concentration (MIC)",66.7 µg/mL
same,Inhibitory activity against Gram-positive bacteria (in words),"[3]; Bacillus subtilis, Micrococcus luteus, Mycobacterium smegmatis, Staphylococcus aureus",showed inhibitory activity
same,Antitumor activity (in words),[4],“potent” antitumor activity
"C[C@H]1CC(O)=C2C(=O)c3c(ccc(-c4ccc(O)c5c4O[C@]4(C(=O)O)C(=C(O)C[C@H](C)[C@@H]4O)C5=O)c3O)O[C@@]2(C(=O)O)[C@H]1O [Compound 3, penicillixanthone A]",pIC50,HeLa cells KB3.1; [10],4.76
same,pIC50,Mouse fibroblast L929; [11],< 3.99
same,Antibacterial activity (in words),[5],moderate antibacterial activity
same,Antibacterial activity (in words),B. subtilis,moderate antibacterial activity
same,Cytotoxic effects (in words),[6],moderate cytotoxic effects
same,Antibacterial activity (in words),E. coli,moderate antibacterial activity
same,Minimum Inhibitory Concentration (MIC),Escherichia coli,-
same,MIC,Staphylococcus aureus; [13],33.3 µg/mL
same,Minimum Inhibitory Concentration (MIC),[2],-
same,MIC,"Mucor hiemalis; Mucor hiemalis, DSM6766, strain DSM 6766, starting concentration 66.7 µg/mL, control volume in brackets, read-out: Minimum Inhibitory Concentration (MIC)",66.7 µg/mL
same,Inhibition of Mucor hiemalis (in words),Mucor hiemalis; comparable to nystatin,inhibited
same,MIC,Micrococcus luteus; [14],33.3 µg/mL
same,MIC,Bacillus subtilis; [15],4.2 µg/mL
same,Minimum Inhibitory Concentration (MIC),Pseudomonas aeruginosa,-
same,Anti-HIV-1 activity (in words),CXCR4-tropic HIV-1,inhibiting
same,Cytotoxic effects (in words),[7],moderate cytotoxic effects
same,Antibacterial activity (in words),M. luteus,moderate antibacterial activity
same,Anti-HIV-1 activity (in words),CCR5-tropic HIV-1,inhibiting
"C/C(=C\c1csc(C)n1)[C@@H]1C[C@@H]2O[C@]2(C)CCC[C@H](C)[C@H](O)[C@@H](C)C(=O)C(C)(C)[C@@H](O)CC(=O)O1 [Epothilone B, reference compound]",pIC50,HeLa cells KB3.1,10.05
same,pIC50,"Mouse fibroblast L929; Mus musculus, L929",8.74
"NC[C@H]1O[C@H](O[C@H]2[C@H](O)[C@@H](O[C@H]3O[C@H](CO)[C@@H](O)[C@H](N)[C@H]3O)[C@H](N)C[C@@H]2N)[C@H](O)[C@@H](O)[C@@H]1O [K, kanamycin, reference compound]",Minimum Inhibitory Concentration (MIC),"Mycobacterium smegmatis; strain ATCC 700084, starting concentration 66.7 µg/mL, control volume in brackets",3.3 (2 µL K) μg/mL
"Cc1ccc(C(=O)c2c(O)cccc2C(=O)O)c(O)c1 [Compound 5, cephalanone F]",pIC50,HeLa cells KB3.1; [10],< 3.70
same,pIC50,Mouse fibroblast L929; [11],< 3.99
same,Minimum Inhibitory Concentration (MIC),Escherichia coli,-
same,Minimum Inhibitory Concentration (MIC),Staphylococcus aureus; [16],-
same,Minimum Inhibitory Concentration (MIC),[2],-
same,Minimum Inhibitory Concentration (MIC),Mucor hiemalis; [12],-
same,Minimum Inhibitory Concentration (MIC),Micrococcus luteus; [17],-
same,Minimum Inhibitory Concentration (MIC),Bacillus subtilis; [18],-
same,Minimum Inhibitory Concentration (MIC),Pseudomonas aeruginosa,-
same,Antimicrobial activity (in words),[3],neither antimicrobial nor cytotoxic activities
same,Cytotoxic activity (in words),[8],neither antimicrobial nor cytotoxic activities
"COC(=O)C1(C2OC(=O)CC2C)CC(=O)c2c(O)ccc(-c3ccc4c(c3O)C(=O)C3(O)C5(O)CC(C)C(O)C3(O4)C(=O)O5)c2O1 (stereo not drawn) [Compound 1, pseudopalawanone]",pIC50,HeLa cells KB3.1; [10],4.53
same,pIC50,Mouse fibroblast L929; [11],4.30
same,Minimum Inhibitory Concentration (MIC),Escherichia coli,-
same,MIC,Staphylococcus aureus; [13],66.7 µg/mL
same,Minimum Inhibitory Concentration (MIC),[2],-
same,Minimum Inhibitory Concentration (MIC),Mucor hiemalis; [12],-
same,MIC,Micrococcus luteus; [14],66.7 µg/mL
same,MIC,Bacillus subtilis; [15],66.7 µg/mL
same,Minimum Inhibitory Concentration (MIC),Pseudomonas aeruginosa,-
"C[C@@H]1[C@H](O)[C@@H](C)/C=C/C=C/CC/C=C/C=C/C=C/C=C/C(O[C@H]2O[C@H](C)[C@@H](O)[C@H](N)[C@@H]2O)CC2O[C@](O)(CC(O)C(O)CCC(O)CC(O)CC(O)CC(=O)O[C@H]1C)CC(O)C2C(=O)O (stereo partly drawn) [N, nystatin]",Minimum Inhibitory Concentration (MIC),[9],33.3 (20 µL N) μg/mL
same,Minimum Inhibitory Concentration (MIC),Cryptococcus neoformans,66.7 (20 µL N) μg/mL
same,Minimum Inhibitory Concentration (MIC),"Candida albicans; strain DSM 1665, starting concentration 66.7 µg/mL, control volume in brackets",66.7 (20 µL N) μg/mL
same,Minimum Inhibitory Concentration (MIC),Rhodoturula glutinis,16.7 (20 µL N) μg/mL
same,Minimum Inhibitory Concentration (MIC),Pichia anomala,66.7 (20 µL N) μg/mL
"COC(=O)C1(C2OC(=O)CC2C)CC(=O)c2c(O)cccc2O1 (stereo not drawn) [Compound 4, paecilin B]",pIC50,HeLa cells KB3.1; [10],< 3.70
same,pIC50,Mouse fibroblast L929; [11],< 3.99
same,Minimum Inhibitory Concentration (MIC),Escherichia coli,-
same,Minimum Inhibitory Concentration (MIC),Staphylococcus aureus; [16],-
same,Minimum Inhibitory Concentration (MIC),[2],-
same,Minimum Inhibitory Concentration (MIC),Mucor hiemalis; [12],-
same,Minimum Inhibitory Concentration (MIC),Micrococcus luteus; [17],-
same,Minimum Inhibitory Concentration (MIC),Bacillus subtilis; [18],-
same,Minimum Inhibitory Concentration (MIC),Pseudomonas aeruginosa,-
same,Antimicrobial activity (in words),[3],neither antimicrobial nor cytotoxic activities
same,Cytotoxic activity (in words),[8],neither antimicrobial nor cytotoxic activities
"CN(C)[C@@H]1C(O)=C(C(N)=O)C(=O)[C@@]2(O)C(O)=C3C(=O)c4c(O)cccc4[C@@](C)(O)[C@H]3[C@H](O)[C@@H]12 [O, oxytetracycline hydrochloride, reference compound]",MIC,"Escherichia coli; Escherichia coli, DSM1116, read-out: Minimum Inhibitory Concentration (MIC)",3.3 µg/mL
same,MIC,Staphylococcus aureus; [13],0.2 µg/mL
same,MIC,"[2]; Chromobacterium violaceum, DSM30191, read-out: Minimum Inhibitory Concentration (MIC)",1.7 µg/mL
same,MIC,Micrococcus luteus; [14],0.4 µg/mL
same,MIC,Bacillus subtilis; [15],8.3 µg/mL
